Test results: article PMC10101151 (Bioorganic & medicinal chemistry letters, 2022)

Experiments:
[1] = system: E. coli AR-0493; assay: colistin MIC in absence or presence of RMA; type: cell-based; settings: colistin alone; mcr-1
[2] = system: E. coli AR-0538; assay: colistin MIC in absence or presence of RMA; type: cell-based; settings: colistin alone; mcr-2
[3] = system: S. Typhimurium AR-0539; assay: colistin MIC in absence or presence of RMA; type: cell-based, Salmonella Typhimurium; settings: colistin alone; mcr-3
[4] = system: S. Typhimurium AR-0635; assay: colistin MIC in absence or presence of RMA; type: cell-based, Salmonella Typhimurium; settings: colistin alone; mcr-4
[5] = system: K. pneumoniae AR-0497; assay: colistin MIC in absence or presence of RMA; type: cell-based; settings: colistin alone; mcr-1
[6] = system: A. baumannii AR-0310; assay: colistin MIC in absence or presence of RMA; type: cell-based; settings: colistin alone
[7] = system: P. aeruginosa AR-0239; assay: colistin MIC in absence or presence of RMA; type: cell-based; settings: for fold reduction of colistin MIC: compound at 1 μg/mL, AR-0239
[8] = system: P. aeruginosa AR-0257; assay: colistin MIC in absence or presence of RMA; type: cell-based; settings: for fold reduction of colistin MIC: compound at 1 μg/mL, AR-0257
[9] = system: 8 different MDR Gram-negative bacteria; assay: colistin MIC across the panel of strains; type: cell-based; settings: for Colistin MIC in the presence of compound, strains that contain the mcr genes: compound at 1 μg/mL
[10] = system: mitochondria; settings: in vitro and in mice for 6p; cited from earlier work

Compound: Colistin
- Colistin MIC [1]: 8 µg/mL
- Colistin MIC [2]: 8 µg/mL
- Colistin MIC [3]: 8 µg/mL
- Colistin MIC [4]: 32 µg/mL
- Colistin MIC [5]: 8 µg/mL
- Colistin MIC [6]: 32 µg/mL
- Colistin MIC ([7]; colistin alone): 4 µg/mL
- Colistin MIC ([8]; colistin alone): 8 µg/mL
- Colistin MIC, range over all strains ([9]; colistin alone, 8 strains): 4 to 32 µg/mL

Compound: Oc1nc2nonc2nc1Nc1ccc(OC(F)(F)F)cc1 [6p]
- mitochondrial uncoupler activity [10]: one of the most potent uncouplers

Compound: Clc1ccc(Nc2nc3nonc3nc2Nc2ccc(Cl)cc2)cc1 [5m]
- fold reduction of colistin MIC [7]: 4 folds
- fold reduction of colistin MIC [8]: 4 folds
- Colistin MIC in the presence of compound, strains that contain the mcr genes [9]: 1 to 2 µg/mL

Compound: Clc1cccc(Nc2nc3nonc3nc2Nc2cccc(Cl)c2)c1 [5l]
- fold reduction of colistin MIC [7]: 4 folds
- fold reduction of colistin MIC [8]: 4 folds
- Colistin MIC in the presence of compound, strains that contain the mcr genes [9]: 1 to 2 µg/mL

Compound: FC(F)(F)Oc1ccc(Nc2nc3nonc3nc2Nc2ccc(OC(F)(F)F)cc2)cc1 [5p]
- mitochondrial uncoupler activity [10]: poor uncoupler
